“And” between values parts separate entries of the source, which are not always exact repeats. Equal values may be shown once.
What was measured:
[1] = target: T1, porcine pepsin (Sus scrofa, UniProt P00791); assay: Peptide stability in simulated gastric fluid (SGF); type: in vitro ADME
T1 construct: 0.32 g of porcine pepsin (Sigma-Aldrich, P7125) was dissolved under gentle agitation; purchased Sigma-Aldrich P7125
Method: (§1) Simulated gastric and intestinal fluids were prepared according to the States Pharmacopeia specifications (Test Solutions, United States Pharmacopeia 35, NF 30, 2012). SGF: 0.2 g of sodium chloride was dissolved in 50 ml of water, and the pH was adjusted to 1.2 by addition of 0.7 ml of 10 M hydrochloric acid. Then, 0.32 g of porcine pepsin (Sigma-Aldrich, P7125) was dissolved under gentle agitation, and the volume was filled up to 100 ml with Milli-Q water. SIF: 0.68 g of monobasic potassium phosphate was dissolved in 25 ml of Milli-Q water, and the pH was adjusted to 6.8 by adding 7.7 ml of a 0.2 M sodium hydroxide solution. Next, 1 g of porcine pancreatin (Sigma-Aldrich, P3292) was added under gentle agitation, and the volume was adjusted to 100 ml with Milli-Q water to afford a fine suspension. To test the stability in simulated gastrointestinal fluids, 396 μl of SGF or SIF was pre-heated at 37 °C for 10 min, and 4 μl of a 1 mM peptide solution in DMSO was added. […] Supernatant was analyzed by LC–MS to measure the peptide concentrations at the different timepoints. Residual peptide was calculated by normalizing the concentrations measured at T1 to T0.

[2] = target: T2, rat α-thrombin (Rattus norvegicus, UniProt P18292); assay: Protease inhibition, Ki for rat α-thrombin (fluorogenic substrate Z-Gly-Gly-Arg-AMC); type: biochemical; conditions: replicates R1-R3
T2 construct: rat α-thrombin (Molecular Innovations) were used at final concentrations of 2 nM and 3 nM; purchased Molecular Innovations
In short: (§2)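 Inhibition was measured as AMC fluorescence from 50 μM substrate, monitored for 30 min at 25 °C, relative to a peptide-free control. Human and rat enzymes were present at 2 nM and 3 nM final, respectively, in 50 mM Tris-HCl pH 7.4, 150 mM NaCl, 10 mM MgCl2, 1 mM CaCl2. Ki derives from fitted IC50 via Cheng–Prusoff.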

[3] = Passive artificial membrane permeability (PAMPA)
[4] = tested on: porcine pancreatin; assay: Peptide stability in simulated intestinal fluid (SIF); type: in vitro ADME; conditions: after 8 h vs 0 h (TIC); average of R1-R3
Method: as §1

[5] = as above; type: in vitro ADME, porcine; conditions: simulated gi fluid; 8 h, 37 °C, pH 6.8; read-out: Proteolytic stability: SIF (8 h) % remaining
Method: as §1

[6] = Metabolic stability in rat liver microsomes (RLMs); conditions: rat, microsomes
[7] = target: human α-thrombin (Homo sapiens, UniProt P00734); assay: Protease inhibition, Ki for human α-thrombin (fluorogenic substrate Z-Gly-Gly-Arg-AMC); type: biochemical; conditions: replicates R1-R3
In short: as §2

[8] = peptide 1.33E+02 uM, slope of proteolytic substrate cleavage over time

T1 sequence (P00791 60-385): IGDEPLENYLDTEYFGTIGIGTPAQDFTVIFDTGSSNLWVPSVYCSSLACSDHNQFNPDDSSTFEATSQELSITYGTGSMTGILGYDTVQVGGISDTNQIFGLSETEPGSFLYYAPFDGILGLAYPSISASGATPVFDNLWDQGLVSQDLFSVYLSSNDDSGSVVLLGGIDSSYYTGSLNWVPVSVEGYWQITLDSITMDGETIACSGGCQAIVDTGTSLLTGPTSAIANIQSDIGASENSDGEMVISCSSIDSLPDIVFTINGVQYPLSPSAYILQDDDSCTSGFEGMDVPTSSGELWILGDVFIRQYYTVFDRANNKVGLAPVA

O=C1C[C@H]2CCCN2C(=O)[C@H](Cc2ccccn2)NC(=O)[C@@H](NC(=O)c2ccc(Cl)s2)CSCCS(=O)(=O)CCSCCN1 [compound 12]
SGF stability, Residual peptide Average ([1]; after 8 h vs 0 h (TIC), average of R1-R3): 99.15 | SGF stability, Residual peptide ([1]; after 8 h vs 0 h (TIC), single replicates R1-R3): 102.14 and 93.27 and 102.05 | remaining at 8 h ([1]; simulated gi fluid, 8 h, 37 °C, pH 1.2, read-out: Proteolytic stability: SGF (8 h) % remaining): 99 ± 5% | Rat alpha thrombin inhibition, slope normalized to DMSO [2, 8]: 4.6 and 7.6 and 2.5 | Rat alpha thrombin inhibition, slope normalized to DMSO ([2]; peptide 1.67E+01 uM): 7.9 and 9.3 and 7.8 | Rat alpha thrombin inhibition, slope normalized to DMSO ([2]; peptide 2.08E+00 uM): 26.1 and 28.9 and 26.4 | Rat alpha thrombin inhibition, slope normalized to DMSO ([2]; peptide 3.33E+01 uM): 4.7 and 8.8 and 5.5 | Rat alpha thrombin inhibition, slope normalized to DMSO ([2]; peptide 4.17E+00 uM): 21.7 and 23.0 and 20.8 | Rat alpha thrombin inhibition, slope normalized to DMSO ([2]; peptide 6.67E+01 uM): 5.5 and 8.4 and 4.7 | Rat alpha thrombin inhibition, slope normalized to DMSO ([2]; peptide 8.33E+00 uM): 11.6 and 14.0 and 11.0 | PAMPA permeability: % permeability ([3]; 50 μM, 12–18 h, acceptor concentration relative to equilibrium): 0.35 ± 0.03% | Papp at 50 μM ([3]; PAMPA, pH 7.4): 0.0229 ×10⁻⁶ cm/s | Permeability% Average ([3]; PAMPA, average of R1-R3): 0.35% | Permeability% R1 ([3]; PAMPA, replicate R1, TIC of top well sample relative to sample at theoretical equilibrium): 0.32% | Permeability% R3 ([3]; PAMPA, replicate R3, TIC of top well sample relative to sample at theoretical equilibrium): 0.38% | SIF stability, Residual peptide Average [4]: 95.62 | remaining at 8 h [5]: 96 ± 6% | microsomal CLint ([6]; CL (ul/min/mg protein) R1, RLM CL, replicate R1): 90.2 µL/min/mg | microsomal CLint ([6]; CL (ul/min/mg protein) R2, RLM CL, replicate R2): 68.8 µL/min/mg | microsomal CLint ([6]; CL (ul/min/mg protein) R3, RLM CL, replicate R3): 72.9 µL/min/mg | half-life ([6]; Half Life (min) R1, RLM metabolic stability, replicate R1, 0-60 min): 15.4 min | half-life ([6]; Half Life (min) R2, RLM metabolic stability, replicate R2, 0-60 min): 20.1 min | half-life ([6]; Half Life (min) R3, RLM metabolic stability, replicate R3, 0-60 min): 19 min | half-life ([6]; Metabolic stability: Half life T1/2 (min), RLMs, mean and SD, three measurements): 18.2 ± 2 min | microsomal CLint ([6]; Metabolic stability: RLM CL (ul/min/mg), RLMs, mean and SD, three measurements): 77 ± 9 µL/min/mg | microsomal CLint ([6]; Metabolic stability: RLM CL Average, summary table, average of R1-R3): 77.3 µL/min/mg | microsomal CLint ([6]; Metabolic stability: RLM CL R1, summary table, rounded, replicate R1): 90.2 µL/min/mg | microsomal CLint ([6]; Metabolic stability: RLM CL R2, summary table, rounded, replicate R2): 68.8 µL/min/mg | microsomal CLint ([6]; Metabolic stability: RLM CL R3, summary table, rounded, replicate R3): 73 µL/min/mg | Human alpha thrombin inhibition, slope normalized to DMSO ([7]; peptide 1.02E-03 uM): 102.9 and 99.8 and 96.6 | Human alpha thrombin inhibition, slope normalized to DMSO ([7]; peptide 1.04E+00 uM): 56.9 and 56.3 and 49.2 | Human alpha thrombin inhibition, slope normalized to DMSO ([7]; peptide 1.27E-04 uM): 90.5 and 95.3 and 95.8 | Human alpha thrombin inhibition, slope normalized to DMSO ([7]; peptide 1.30E-01 uM): 71.9 and 86.4 and 78.8 | Human alpha thrombin inhibition, slope normalized to DMSO [7, 8]: 6.4 and 9.7 and 4.3 | Human alpha thrombin inhibition, slope normalized to DMSO ([7]; peptide 1.63E-02 uM): 99.5 and 89.1 and 90.1 | Human alpha thrombin inhibition, slope normalized to DMSO ([7]; peptide 1.67E+01 uM): 16.0 and 14.1 and 9.4 | Human alpha thrombin inhibition, slope normalized to DMSO ([7]; peptide 2.03E-03 uM): 98.8 and 94.5 and 92.3 | Human alpha thrombin inhibition, slope normalized to DMSO ([7]; peptide 2.08E+00 uM): 52.9 and 44.1 and 36.2 | Human alpha thrombin inhibition, slope normalized to DMSO ([7]; peptide 2.54E-04 uM): 106.8 and 94.8 and 97.0 | Human alpha thrombin inhibition, slope normalized to DMSO ([7]; peptide 2.60E-01 uM): 78.1 and 77.3 and 67.5 | Human alpha thrombin inhibition, slope normalized to DMSO ([7]; peptide 3.18E-05 uM): 100.4 and 97.0 and 90.2 | Human alpha thrombin inhibition, slope normalized to DMSO ([7]; peptide 3.26E-02 uM): 100.0 and 89.9 and 87.8 | Human alpha thrombin inhibition, slope normalized to DMSO ([7]; peptide 3.33E+01 uM): 12.7 and 10.3 and 16.0 | Human alpha thrombin inhibition, slope normalized to DMSO ([7]; peptide 4.07E-03 uM): 92.6 and 96.1 and 91.8 | Human alpha thrombin inhibition, slope normalized to DMSO ([7]; peptide 4.17E+00 uM): 39.5 and 36.2 and 29.7 | Human alpha thrombin inhibition, slope normalized to DMSO ([7]; peptide 5.09E-04 uM): 101.4 and 93.9 and 96.1 | Human alpha thrombin inhibition, slope normalized to DMSO ([7]; peptide 5.21E-01 uM): 64.5 and 65.3 and 59.0 | Human alpha thrombin inhibition, slope normalized to DMSO ([7]; peptide 6.36E-05 uM): 103.2 and 97.0 and 93.0 | Human alpha thrombin inhibition, slope normalized to DMSO ([7]; peptide 6.51E-02 uM): 93.3 and 87.6 and 88.6 | Human alpha thrombin inhibition, slope normalized to DMSO ([7]; peptide 6.67E+01 uM): 9.5 and 8.1 and 4.7 | Human alpha thrombin inhibition, slope normalized to DMSO ([7]; peptide 8.14E-03 uM): 100.4 and 99.0 and 91.1 | Human alpha thrombin inhibition, slope normalized to DMSO ([7]; peptide 8.33E+00 uM): 24.1 and 22.7 and 13.9

— PMC11062899, “De novo development of small cyclic peptides that are orally bioavailable” (Nature Chemical Biology, 2023)
